Legend:
[1] = molecular target: T1, hTRPA1 expressed in CHO cells (Homo sapiens, UniProt O75762); assay: in vitro activity of hTRPA1 expressed in CHO cells, intracellular calcium measured with a fluorescent dye; type: cell-based; design: efficacy on hTRPA1 according to dose-response curve: dose or concentration left out as unconfirmed
T1 construct: expressed in transfected cells; host or cells: CHO cells
Experimental: The in vitro activity of hTRPA1 expressed in CHO cells was measured for 10 μM cinnamaldehyde and 0.3 μM zinc individually, as well as the combination.

TRPA1 = TRPA1 (Homo sapiens, UniProt O75762); conditions: read-out: EC50 of TRPA1 activation; cited from earlier work
TRPV1 = TRPV1 (Homo sapiens, UniProt Q8NER1); conditions: cited from earlier work
TRPM8 = TRPM8 (Homo sapiens, UniProt Q7Z2W7); conditions: cited from earlier work
[2] = oral administration; cited from earlier work

T1 sequence (O75762 whole entry): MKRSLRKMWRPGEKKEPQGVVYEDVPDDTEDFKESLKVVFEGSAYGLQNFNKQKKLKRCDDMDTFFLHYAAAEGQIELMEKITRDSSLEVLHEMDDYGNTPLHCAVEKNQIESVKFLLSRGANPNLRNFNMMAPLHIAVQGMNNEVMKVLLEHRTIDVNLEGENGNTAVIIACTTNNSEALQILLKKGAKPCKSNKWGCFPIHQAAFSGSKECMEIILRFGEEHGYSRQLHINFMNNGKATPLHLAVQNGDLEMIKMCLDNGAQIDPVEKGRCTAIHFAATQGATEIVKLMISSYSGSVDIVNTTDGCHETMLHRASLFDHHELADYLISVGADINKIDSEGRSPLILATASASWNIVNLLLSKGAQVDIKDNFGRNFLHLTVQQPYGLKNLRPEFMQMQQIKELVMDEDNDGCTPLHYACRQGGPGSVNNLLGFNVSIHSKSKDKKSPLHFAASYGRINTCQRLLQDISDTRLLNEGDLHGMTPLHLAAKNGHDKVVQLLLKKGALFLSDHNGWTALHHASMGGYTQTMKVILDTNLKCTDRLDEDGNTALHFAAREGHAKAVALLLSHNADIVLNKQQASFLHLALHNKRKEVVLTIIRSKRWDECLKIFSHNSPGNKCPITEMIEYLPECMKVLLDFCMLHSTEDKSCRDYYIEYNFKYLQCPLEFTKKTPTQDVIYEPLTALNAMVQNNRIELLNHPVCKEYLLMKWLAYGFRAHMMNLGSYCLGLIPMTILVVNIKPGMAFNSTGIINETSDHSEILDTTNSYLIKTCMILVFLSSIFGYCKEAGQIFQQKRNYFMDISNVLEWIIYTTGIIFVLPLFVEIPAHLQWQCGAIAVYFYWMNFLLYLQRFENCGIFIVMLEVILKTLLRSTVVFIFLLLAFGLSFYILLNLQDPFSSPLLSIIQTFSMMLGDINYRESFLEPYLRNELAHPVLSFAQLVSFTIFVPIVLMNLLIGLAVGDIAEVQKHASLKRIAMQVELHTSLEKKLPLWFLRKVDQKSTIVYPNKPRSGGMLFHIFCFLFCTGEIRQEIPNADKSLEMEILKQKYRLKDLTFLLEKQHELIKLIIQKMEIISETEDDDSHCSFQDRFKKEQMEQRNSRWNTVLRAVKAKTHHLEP
Sequence of TRPA1 (O75762 whole entry, species assumed): as the sequence (O75762 whole entry) above
Sequence of TRPV1 (Q8NER1 whole entry, species assumed): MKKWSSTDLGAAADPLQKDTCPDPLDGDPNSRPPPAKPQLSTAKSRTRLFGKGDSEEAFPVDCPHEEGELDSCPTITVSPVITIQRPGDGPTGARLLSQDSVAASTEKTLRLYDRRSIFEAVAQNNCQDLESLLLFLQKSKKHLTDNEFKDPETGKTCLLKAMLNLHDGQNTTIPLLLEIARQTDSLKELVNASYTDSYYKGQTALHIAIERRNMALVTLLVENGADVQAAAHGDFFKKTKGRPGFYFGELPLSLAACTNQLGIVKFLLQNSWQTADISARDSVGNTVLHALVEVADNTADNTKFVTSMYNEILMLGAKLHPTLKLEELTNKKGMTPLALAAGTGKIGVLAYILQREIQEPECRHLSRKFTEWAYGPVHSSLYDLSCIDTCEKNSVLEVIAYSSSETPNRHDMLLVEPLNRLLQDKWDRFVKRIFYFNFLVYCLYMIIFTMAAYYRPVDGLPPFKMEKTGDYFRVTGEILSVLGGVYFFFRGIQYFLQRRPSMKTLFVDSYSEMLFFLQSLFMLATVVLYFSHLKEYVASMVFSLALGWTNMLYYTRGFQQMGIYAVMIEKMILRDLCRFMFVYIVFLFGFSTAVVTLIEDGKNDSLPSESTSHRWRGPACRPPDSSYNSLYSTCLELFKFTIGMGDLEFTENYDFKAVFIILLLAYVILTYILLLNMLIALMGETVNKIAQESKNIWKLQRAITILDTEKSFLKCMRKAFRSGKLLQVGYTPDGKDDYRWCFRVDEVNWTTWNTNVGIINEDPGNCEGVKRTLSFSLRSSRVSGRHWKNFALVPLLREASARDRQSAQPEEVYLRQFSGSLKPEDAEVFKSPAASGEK
Sequence of TRPM8 (Q7Z2W7 whole entry, species assumed): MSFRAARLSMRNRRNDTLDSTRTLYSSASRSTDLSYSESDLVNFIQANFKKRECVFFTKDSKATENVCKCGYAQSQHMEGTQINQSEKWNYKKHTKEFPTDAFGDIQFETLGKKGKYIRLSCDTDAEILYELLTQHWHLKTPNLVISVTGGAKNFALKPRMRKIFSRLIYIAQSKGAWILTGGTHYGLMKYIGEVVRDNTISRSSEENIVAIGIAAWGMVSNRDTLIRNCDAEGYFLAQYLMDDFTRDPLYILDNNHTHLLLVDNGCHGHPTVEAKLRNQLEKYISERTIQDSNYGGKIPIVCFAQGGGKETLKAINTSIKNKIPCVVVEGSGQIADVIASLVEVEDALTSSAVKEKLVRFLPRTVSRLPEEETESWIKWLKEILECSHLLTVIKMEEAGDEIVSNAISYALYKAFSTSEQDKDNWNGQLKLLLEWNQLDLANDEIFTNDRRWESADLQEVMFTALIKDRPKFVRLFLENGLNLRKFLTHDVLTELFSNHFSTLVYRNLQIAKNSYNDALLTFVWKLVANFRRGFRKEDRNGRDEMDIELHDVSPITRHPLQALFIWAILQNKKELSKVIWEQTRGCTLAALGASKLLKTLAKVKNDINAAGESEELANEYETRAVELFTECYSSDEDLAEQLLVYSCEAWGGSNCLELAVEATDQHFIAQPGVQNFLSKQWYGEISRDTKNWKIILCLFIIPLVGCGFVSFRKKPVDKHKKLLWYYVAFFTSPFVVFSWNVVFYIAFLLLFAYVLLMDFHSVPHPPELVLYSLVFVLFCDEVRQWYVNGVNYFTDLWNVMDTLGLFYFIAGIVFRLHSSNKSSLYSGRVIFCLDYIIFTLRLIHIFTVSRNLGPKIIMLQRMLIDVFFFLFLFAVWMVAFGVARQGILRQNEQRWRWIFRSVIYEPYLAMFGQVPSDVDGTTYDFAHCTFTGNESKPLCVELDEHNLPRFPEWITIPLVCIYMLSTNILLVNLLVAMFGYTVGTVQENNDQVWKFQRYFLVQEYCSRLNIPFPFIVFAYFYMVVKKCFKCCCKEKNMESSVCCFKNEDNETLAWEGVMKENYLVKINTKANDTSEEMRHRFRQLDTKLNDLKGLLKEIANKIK

O=CC=Cc1ccccc1 [cinnamaldehyde]
efficacy on hTRPA1 according to dose-response curve ([1]; positive control C+, CHO cells): maximum efficacy
EC50 (TRPA1): ~10 µM
activation of TRPV1 (TRPV1): not TRPV1
activation of TRPM8 (TRPM8): not TRPV1 or TRPM8

COc1cc(CNC(=O)CCCC/C=C/C(C)C)ccc1O [capsaicin]
promotion of swallow reflex [2]: shown to promote a swallow reflex

zinc
concentration of zinc required for the synergy with cinnamaldehyde on TRPA1 ([1]; in vitro): < 1 µM

— US12161666B2, “Composition comprising cinnamaldehyde and zinc to improve swallowing” (SOCIÉTÉ DES PRODUITS NESTLÉ S.A., priority 2014, dated 2024)
